The text below walks through data of PMC12541620 (Acta Pharmaceutica Sinica. B, 2025).

For orientation: IC50 means the point on the concentration scale where inhibition reaches its midpoint. Read a high IC50 as a need for much substance.

In assay [1] the target is T1, hCES2A (Homo sapiens, UniProt O00748).
T1 sequence (O00748 27-559): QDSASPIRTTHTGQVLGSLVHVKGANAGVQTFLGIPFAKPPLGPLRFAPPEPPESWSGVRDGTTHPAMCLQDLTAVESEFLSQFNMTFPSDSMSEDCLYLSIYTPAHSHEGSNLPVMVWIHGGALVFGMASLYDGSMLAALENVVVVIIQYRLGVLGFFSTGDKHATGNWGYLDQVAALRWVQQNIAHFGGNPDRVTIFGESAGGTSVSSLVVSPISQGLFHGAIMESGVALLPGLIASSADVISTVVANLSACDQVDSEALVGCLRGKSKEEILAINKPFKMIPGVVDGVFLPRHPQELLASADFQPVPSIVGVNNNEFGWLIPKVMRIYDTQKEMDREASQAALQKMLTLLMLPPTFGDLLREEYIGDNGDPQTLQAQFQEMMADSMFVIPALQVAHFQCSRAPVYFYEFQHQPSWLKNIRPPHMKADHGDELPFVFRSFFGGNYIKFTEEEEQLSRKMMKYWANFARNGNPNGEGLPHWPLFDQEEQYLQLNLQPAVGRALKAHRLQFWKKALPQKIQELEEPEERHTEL
As to the kind of experiment: hCES2A inhibition assay. The class given is biochemical. To be noted: for Ratio: IC50 3 min / IC50 33 min.

In another assay the target is hAChE (Homo sapiens, UniProt P22303). As to the kind of experiment: hAChE inhibition assay. The class given is biochemical.
The target of assay [2] is T1, hCES2A. Description: dialysis assay. The class given is biochemical. Particulars: 10 μmol/L, 33 min preincubation, dialysis 2 and 4 h.
Assay [3] deals with irinotecan-triggered gut toxicity (ITGT) in tumor-bearing mice. As to the kind of experiment: irinotecan-triggered gut toxicity in tumor-bearing mice. It is filed as in vivo, C57BL/6J mice. To be noted: C3 25 and 50 mg/kg; LPA 10 mg/kg.
Where [4] appears, read: IC50 (nmol/L) 3 min, 3 min pre-incubation, FD substrate.
Where [5] appears, read: IC50 (nmol/L) 33 min, 33 min pre-incubation, FD substrate.

Where two headings read alike, the source gives them in different places.

Chain of hAChE (P22303 32-614): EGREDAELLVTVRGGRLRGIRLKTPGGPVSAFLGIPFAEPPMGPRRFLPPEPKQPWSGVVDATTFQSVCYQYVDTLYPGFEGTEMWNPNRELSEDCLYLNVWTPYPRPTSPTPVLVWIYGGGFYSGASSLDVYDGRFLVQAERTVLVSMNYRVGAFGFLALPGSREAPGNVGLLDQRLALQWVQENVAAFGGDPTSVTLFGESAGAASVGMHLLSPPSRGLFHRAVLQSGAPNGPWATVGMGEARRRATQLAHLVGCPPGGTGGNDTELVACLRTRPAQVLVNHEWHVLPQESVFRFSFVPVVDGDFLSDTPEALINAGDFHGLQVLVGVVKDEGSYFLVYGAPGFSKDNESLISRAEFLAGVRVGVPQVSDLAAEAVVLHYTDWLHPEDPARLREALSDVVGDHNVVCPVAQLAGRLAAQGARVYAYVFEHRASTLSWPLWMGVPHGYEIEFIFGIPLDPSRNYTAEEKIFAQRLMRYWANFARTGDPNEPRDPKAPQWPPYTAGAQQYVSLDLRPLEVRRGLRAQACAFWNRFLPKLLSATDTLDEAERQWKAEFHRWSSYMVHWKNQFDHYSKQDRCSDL

Turning to `COc1cc2c(cc1OC)C(=O)/C(=C/c1cccc(OC)c1O)C2` [Compound B21], at hCES2A [1], the half-inhibitory concentration (IC50) was determined as 400 nM. That is a sub-micromolar value.
Take `COc1cc2c(cc1OC)C(=O)/C(=C/c1ccccc1OC(=O)N1CCC(N3CCCCC3)CC1)C2` [Compound C8]: the Ratio at hCES2A [1] is given as 3.25. Besides, the concentration for half-maximal inhibition (IC50) against hCES2A [1] (setting [4]) is 732 ± 71.7 nM; against hCES2A [1] (setting [5]), 225 ± 13.4 nM.
With `COc1cc2c(cc1OC)C(=O)/C(=C/c1ccc(F)cc1)C2` [Compound B1], the 50% inhibitory concentration (IC50) against hCES2A [1] worked out at 20900 nM.
At hCES2A [1], `COc1cccc(/C=C2\Cc3cc(OC)c(OC)cc3C2=O)c1` [Compound B5] had a half-inhibitory concentration (IC50) of 64800 nM. This IC50 is about 3.1-fold higher than that of the compound before.
The same measure, in the same setting: the same measure for `COc1ccc(/C=C2\Cc3cc(OC)c(OC)cc3C2=O)cc1` [Compound B6]: 17900 nM.
The same measure, in the same setting: the same measure for `COc1ccccc1/C=C1\Cc2cc(OC)c(OC)cc2C1=O` [Compound B4]: 5500 nM; for `COc1cc2c(cc1OC)C(=O)C(CC1CCN(Cc3ccccc3)CC1)C2` (centres unmarked) [Donepezil, reference compound]: 3910 nM.
Turning to `COc1cc2c(cc1OC)C(=O)/C(=C/c1ccccc1O)C2` [Compound B7], the “enhancement of anti-hCES2A effect relative to A3” value on hCES2A [1] came to 8.36 folds. For the same compound, the Ratio on hCES2A [1] amounted to 0.33. Further, the half-maximal inhibitory concentration (IC50) against hCES2A [1] (setting [4]) came to 106 ± 15.5 nM; against hCES2A [1] (setting [5]), 325 ± 59.5 nM; at hCES2A [1] (IC50 against hCES2A, FD substrate, 3 min preincubation), 110 nM. In addition, the anti-hAChE activity result on hAChE is recorded as “very weak anti-hAChE activity”.
Turning to `COc1cc2c(cc1OC)C(=O)/C(=C/c1ccccc1Cl)C2` [Compound B2], the IC50 at hCES2A [1] was found to be 12100 nM. This counts as double-digit micromolar.
`COc1cc2c(cc1OC)C(=O)/C(=C/c1c(O)cccc1Br)C2` [Compound B20]: the IC50 against hCES2A [1] amounted to 290 nM.
Take `COc1cc2c(cc1OC)C(=O)/C(=C/c1ccccc1F)C2` [Compound B3]: the IC50 on hCES2A [1] stood at 2970 nM.
On to `COc1cc2c(cc1OC)C(=O)/C(=C/c1ccccc1OC(=O)N1CCN(C)CC1)C2` [Compound C7], for which the Ratio at hCES2A [1] amounted to 7.32. Also, the half-maximal inhibitory concentration (IC50) against hCES2A [1] (setting [4]) was 258 ± 37.8 nM; on hCES2A [1] (setting [5]) it was 35.3 ± 3.67 nM.
On to `CN(C)C(=O)C(CCN1CCC(O)(c2ccc(Cl)cc2)CC1)(c1ccccc1)c1ccccc1` [LPA, loperamide], for which the “hCES2A activity after dialysis” value on hCES2A [2] is reported as “gradually recovering trend over time”. The “elevated colon IL-6, IL-1β and TNF-α levels” value in assay [3] is given as “reversed”.
